Earlier results on one molecule are cited in patent publication US9180152B2, “Method for treating psoriasis” (NIKKEN SOHONSHA CORPORATION, priority 2009, dated 2015).

This data set relates to Psoriasis. The settings on record: well-tolerated oral doses.

Take `CC1=C(/C=C/C(C)=C\C=C\C(C)=C\C(=O)O)C(C)(C)CCC1` [9-cis-retinoic acid]: the response of psoriasis result was “did not respond”.
